Assay results as given in the supplement of paper PMC10307832.

Assays:
Assay in all cases: relative viability (nuclei count vs DMSO), 5 days (fraction); higher = more cells survive
Olaparib + Tozasertib = compound: O=C(c1cc(Cc2n[nH]c(=O)c3ccccc23)ccc1F)N1CCN(C(=O)C2CC2)CC1 [Olaparib] + Cc1cc(Nc2cc(N3CCN(C)CC3)nc(Sc3ccc(NC(=O)C4CC4)cc3)n2)n[nH]1 [Tozasertib] (partner 0.1 µM)
How it was run: (§1)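 One day after seeding in 1536-well plates, lung cancer cell lines were dosed by pin tool. Dosing was either single-drug or a fixed anchor-drug dose plus five library-drug doses (not always all listed) in √10 steps. After 5 days, nuclei were stained in one fix-and-stain step and counted on 4× images, and relative viability is the nuclei count of treated wells over that of vehicle wells, given as the median of duplicate plates.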

Carfilzomib + Olaparib = compound: CC(C)C[C@H](NC(=O)[C@H](CCc1ccccc1)NC(=O)CN1CCOCC1)C(=O)N[C@@H](Cc1ccccc1)C(=O)N[C@@H](CC(C)C)C(=O)[C@@]1(C)CO1 [Carfilzomib] + O=C(c1cc(Cc2n[nH]c(=O)c3ccccc23)ccc1F)N1CCN(C(=O)C2CC2)CC1 [Olaparib] (partner 8 µM)
How it was run: as §1

Carfilzomib + Linsitinib = compound: CC(C)C[C@H](NC(=O)[C@H](CCc1ccccc1)NC(=O)CN1CCOCC1)C(=O)N[C@@H](Cc1ccccc1)C(=O)N[C@@H](CC(C)C)C(=O)[C@@]1(C)CO1 [Carfilzomib] + C[C@]1(O)C[C@@H](c2nc(-c3ccc4ccc(-c5ccccc5)nc4c3)c3c(N)nccn32)C1 [Linsitinib] (partner 1 µM)
How it was run: as §1

Carfilzomib + OSI-027 = compound: CC(C)C[C@H](NC(=O)[C@H](CCc1ccccc1)NC(=O)CN1CCOCC1)C(=O)N[C@@H](Cc1ccccc1)C(=O)N[C@@H](CC(C)C)C(=O)[C@@]1(C)CO1 [Carfilzomib] + COc1cccc2cc(-c3nc([C@H]4CC[C@H](C(=O)O)CC4)n4ncnc(N)c34)[nH]c12 [OSI-027] (partner 0.5 µM)
How it was run: as §1

Cell Line	relative viability (Olaparib + Tozasertib; first compound 0.08 µM)	relative viability (Olaparib + Tozasertib; first compound 0.253 µM)	relative viability (Olaparib + Tozasertib; first compound 2.53 µM)	relative viability (Olaparib + Tozasertib; first compound 8 µM)	relative viability (Carfilzomib + Olaparib; first compound 0.001 µM)	relative viability (Carfilzomib + Olaparib; first compound 0.003162 µM)	relative viability (Carfilzomib + Olaparib; first compound 0.01 µM)	relative viability (Carfilzomib + Olaparib; first compound 0.03162 µM)	relative viability (Carfilzomib + Olaparib; first compound 0.1 µM)	relative viability (Carfilzomib + Linsitinib; first compound 0.001 µM)	relative viability (Carfilzomib + Linsitinib; first compound 0.003162 µM)	relative viability (Carfilzomib + Linsitinib; first compound 0.01 µM)	relative viability (Carfilzomib + Linsitinib; first compound 0.03162 µM)	relative viability (Carfilzomib + Linsitinib; first compound 0.1 µM)	relative viability (Carfilzomib + OSI-027; first compound 0.001 µM)	relative viability (Carfilzomib + OSI-027; first compound 0.003162 µM)	relative viability (Carfilzomib + OSI-027; first compound 0.01 µM)	relative viability (Carfilzomib + OSI-027; first compound 0.03162 µM)	relative viability (Carfilzomib + OSI-027; first compound 0.1 µM)
NCI-H520	0.39	0.389	0.467	0.411	0.307	0.297	0.203	0.161	0.15	1.01	1.09	0.667	0.152	0.151	0.19	0.259	0.22	0.221	0.191
NCI-H596	0.962	0.707	0.813	0.617	0.691	0.704	0.727	0.552	0.186	1.11	1.03	1.16	0.628	0.449	0.657	1	0.684	0.372	0.149
NCI-H647	0.253	0.258	0.407	0.255	0.641	0.644	0.0662	0.0256	0.023	0.942	1.16	0.761	0.0416	0.0315	0.562	0.747	0.583	0.0357	0.0226
NCI-H650	0.974	0.72	0.656	0.541	0.363	0.382	0.414	0.247	0.112	0.389	1.19	0.958	0.27	0.176		0.612	0.54	0.439	0.221
NCI-H661	0.346	0.355	0.34	0.343	0.731	0.806	0.725	0.684	0.312	0.501	0.851	0.552	0.424	0.171	0.698	0.705	0.722	0.675	0.394
NCI-H727	0.704	0.581	0.674	0.486	0.705	0.751	0.859	0.62	0.242	0.406	0.249	0.301	0.431	0.117	0.618	0.646	0.734	0.463	0.242
NCI-H838	0.277	0.239	0.265	0.269	0.79	0.799	0.785	0.126	0.109	1.02	1.02	1.05	0.676	0.116	0.367	0.45	0.431	0.388	0.131
NCI-H1355	0.697	0.552	0.562	0.444	0.732	0.777	0.754	0.62	0.118	0.795	0.915	0.794	0.487	0.14	0.411	0.495	0.493	0.311	0.163
